Values quoted from earlier work, collected in patent US20190000794A1, “TRANSMUCOSAL CANNABINOID FORMULATION INCLUDING A CHITOSAN EXCIPEINT” (priority 2017, published 2019).

Settings: oral consumption; first pass metabolism in the liver

**Q.** For `CCCCCc1cc(O)c2c(c1)OC(C)(C)[C@@H]1CCC(C)=C[C@@H]21` [THC, trans-Δ^9-tetrahydrocannabinol], which “fraction of THC consumed orally that is metabolized through first pass metabolism” value is on record?
**A.** Its value is “up to 97%”.
